Test results reported in US10301596B2, “Method of repairing damaged chondrocytes via low-dose irradiation” (KOREA INSTITUTE OF RADIOLOGICAL & MEDICAL SCIENCES, priority 2013, dated 2019).

Columns and labels:
Assay type in all cases: cell-based
Sox-9 = Sox-9 transcriptional activity, reporter gene assay in chondrocytes; conditions: 10 ng/mL IL-1β alone
Experimental: (§1) First, the chondrocytes derived from joints were cultured in a DMEM medium according to a known method (E. H. Hong, et al., J. Biol. Chem. 285:1283-1295, 2010). Then, the cultured chondrocytes were inoculated into culture dishes at a density of 5×10^4 cells/cm^2, which were irradiated with 0 cGy, 0.5 cGy, 1.0 cGy, 1.5 cGy, and 2.0 cGy LDR using a ^137Cs-ray source (KIRMS, Korea), and the levels of type II collagen or Sox-9 protein, which are cartilage-specific differentiation marker proteins, and I-κB or COX-2 protein, which are inflammation-related proteins, were determined via Western blot analysis, and the transcriptional activity of Sox-9 protein and NF-κB, which is affected by I-κB, were determined by reporter gene assay (FIGS. 1a and b).
(§2) Chondrocytes were treated with either 10 ng/mL IL-1β alone, or in a combination of IL-1β treatment and 0.5 cGy or 1 cGy LDR, and the transcript levels of type I collagen, type II collagen, Sox-9, COX-2, and I-κB were measured via PCR using GAPDH as a control and a quantitative real-time PCR analysis, and the transcriptional activity of NF-κB was measured by reporter gene assay (FIGS. 2a, 2b, 2c, and 2d).
Additionally, the transcriptional activity of Sox-9 or NF-κB was determined by reporter gene assay, and the experimental results were indicated in terms of mean standard deviation (FIG. 5e). […]

NF-κB = NF-κB transcriptional activity, reporter gene assay in chondrocytes; conditions: for transcriptional activity of NF-κB increased: 10 ng/mL IL-1β; for NF-κB activity reduced compared to IL-1β-treated chondrocytes: 1 hour before 10 ng/mL IL-1β
Experimental: as §1, §2
Meanwhile, chondrocytes were treated with LY294002, which is another chemical inhibitor of PI3K/Akt signaling, at a concentration of 10 μM or 20 μM, reacted for 1 hour, treated with […] reacted for 48 hours. Upon reaction, the levels of type II collagen, Sox-9, I-κB, and COX-2 proteins were determined via Western blot analysis, and the transcriptional activity of NF-κB was determined by reporter gene assay (FIG. 3c).
Finally, chondrocytes were transfected with 3 μg of the respective catenin plasmid for 24 hours, and untreated (−) or treated with 10 ng/mL, IL-1β (+) for 48 hours. Then, the levels of differentiation- and inflammation-related proteins were determined via Western blot analysis, and the transcriptional activity of NF-κB at 24 hours after IL-1β treatment was determined by reporter gene assay (FIG. 4d).
Additionally, the transcriptional activity of Sox-9 or NF-κB was determined by reporter gene assay, and the experimental results were indicated in terms of mean standard deviation (FIG. 5e). As a result, it was confirmed that LDR can increase the activity of Sox-9 in catenin-overexpressing chondrocytes while reducing the transcriptional activity of NF-κB. Specifically, as shown in FIG. 5e (left), 1 cGy LDR irradiation increased Sox-9 activity by about a 2.2-, 2.7-, and 2.4-fold compared to that in cells transfected with […], and, as shown in FIG. 5e (right), reduced NF-κB activity by about 74%, 78%, and 75%, respectively, thus confirming that LDR has the effect of inhibiting the induction of potential inflammation.

COX-2 = COX-2 transcript level by PCR and quantitative real-time PCR in chondrocytes; conditions: 10 ng/mL IL-1β
Experimental: as §2

Akt = assay: Expression and phosphorylation of Akt and GSK3α/β, Western blot in chondrocytes; conditions: 10 ng/mL IL-1β
chondrocytes = assay: Levels of differentiation- and inflammation-related proteins (type II collagen, Sox-9, I-κB, COX-2), Western blot in chondrocytes
Experimental: as §1, with “b). […]” for “b).”
Finally, chondrocytes were transfected with 3 μg of GFP-labeled S83A α-catenin, FLAG-labeled S33A β-catenin, or wild type γ-catenin, reacted with or without treatment with 5 μM or 10 μM BAY 11-7082 for 24 hours, and the levels of I-κB and COX-2 proteins were determined via Western blot analysis (FIG. 5g). […]

[1] = system: α-, β-, and γ-catenin proteins; assay: Levels of catenin proteins, Western blot in chondrocytes; conditions: 10 ng/mL IL-1β for a predetermined period of time
Experimental: First, chondrocytes were treated with 10 ng/mL IL-1β for a predetermined period of time, and the levels of the catenin proteins were determined via Western blot analysis (FIG. 4a).
First, it was examined whether LDR can directly regulate the expression of catenin proteins in chondrocytes. In this regard, chondrocytes, which were in a state untreated or treated with 10 ng/mL IL-1β, were irradiated at varied doses of LDR for 48 hours, and the levels of catenin proteins were determined via Western blot analysis (FIGS. 5a and 5h).
In order to examine whether the inhibitory effect of LDR on chondrocyte disorders is exclusively related to the responses to IL-1β, cells were treated with EGF, PMA, and RA, which are agents known to induce dedifferentiation of chondrocytes. Specifically, chondrocytes were treated or untreated with 10 ng/mL EGF(a), 10 nM PMA(b), and 1 μM RA(c) for 2 hours, treated or untreated with 0.5 cGy or 1 cGy LDR for 36 hours, and the levels of catenin proteins and differentiation/inflammation-related proteins were determined via Western blot analysis (FIGS. 6a, 6b, and 6c).

[2] = 5 μM or 10 μM, 1 hour before 10 ng/mL IL-1β, 48 hours

## IL-1β: cytokine used at 10 ng/mL to induce dedifferentiation, inflammation and destruction of chondrocytes
Sox-9; 24 hours after treatment
  transcriptional activity of Sox-9 reduced compared to control cells: about 32%
Sox-9; 48 hours after treatment
  transcriptional activity of Sox-9 reduced compared to control cells: ~60%
NF-κB; 10 ng/mL IL-1β alone, 24 hours after treatment, catenin experiment (FIG. 4d)
  NF-κB activity increase, IL-1β treatment alone: about 8.5 fold
NF-κB; 24 hours after treatment (FIG. 2c)
  transcriptional activity of NF-κB increased: about 8.6 fold
NF-κB; 48 hours after treatment (FIG. 2c)
  transcriptional activity of NF-κB increased: ~6.7 fold
COX-2; 24 hours after treatment
  level of COX-2 expression increased compared to control group: about 9.8 fold
COX-2; 48 hours after treatment
  level of COX-2 expression increased compared to control group: ~7.7 fold
Akt
  phosphorylation of Akt induced by treatment: induced the phosphorylation of Akt
chondrocytes; 10 ng/mL IL-1β alone
  level of type II collagen and Sox-9 proteins: reduced the level of type II collagen and Sox-9 proteins
[1]
  expression of α-, β-, and γ-catenin proteins: expressed in a time-dependent manner

## Cc1ccc(S(=O)(=O)/C=C/C#N)cc1 [BAY 11-7082]
chondrocytes; 5 μM or 10 μM for 24 hours, catenin-transfected chondrocytes
  degradation of I-κB and induction of COX-2 in cells transfected with α-, β- or γ-catenin: reversed
chondrocytes; [2]
  COX-2 protein expression compared to IL-1β-treated chondrocytes: reduced COX-2 expression
  I-κB degradation: inhibited I-κB degradation in a dose-dependent manner

## O=c1cc(N2CCOCC2)oc2c(-c3ccccc3)cccc12 [LY294002]
NF-κB; 10 μM
  NF-κB activity reduced compared to IL-1β-treated chondrocytes: about 48%
NF-κB; 20 μM
  NF-κB activity reduced compared to IL-1β-treated chondrocytes: ~68%

## CCCCCCCCCCCCCC(=O)O[C@@H]1[C@@H](C)[C@@]2(O)[C@@H](C=C(CO)C[C@]3(O)C(=O)C(C)=C[C@@H]23)[C@@H]2C(C)(C)[C@]12OC(C)=O [PMA, phorbol 12-myristate 13-acetate]
chondrocytes; 10 ng/mL EGF, 10 nM PMA or 1 μM RA
  pathological changes induced by soluble factor (type II collagen, Sox-9, COX-2 proteins): inhibition of expression of type II collagen and Sox-9 proteins and induction of COX-2 protein expression
